Laboratory results reported in the CheMixHub viscosity set.

Assay: xn = mol fraction of the nth substance listed

CC(=O)[O-].CC[N+]1(C)CCOCC1 + O
viscosity [mPa·s], 100 kPa
Details | x1 = 0.0567 | x1 = 0.0886 | x1 = 0.1794 | x1 = 0.253 | x1 = 0.3334 | x1 = 0.4341 | x1 = 0.4928 | x1 = 0.5718 | x1 = 0.6609 | x1 = 0.7155
298.15 K | 3.5 | 7.01 | 36.6 | 89.4 | 203 | 541 | 671 | 1472 | – | –
303.15 K | 3.03 | 5.93 | 31.9 | 66 | 143 | 347 | 503 | 1093 | – | –
308.15 K | 2.65 | 5.05 | 27 | 50 | 104 | 228 | 383 | 795 | 1969 | –
313.15 K | 2.34 | 4.33 | 22.5 | 38.7 | 78.1 | 150 | 278 | 566 | 1355 | 2266
318.15 K | 2.08 | 3.73 | 18.2 | 30.7 | 59.8 | 123 | 198 | 396 | 908 | 1518
323.15 K | 1.86 | 3.25 | 15 | 24.8 | 46.8 | 92.9 | 144 | 276 | 599 | 971

COCCOCCOCCO + O
101.33 kPa
Details | viscosity [mPa·s]
298.15 K, x1 = 0.0497 | 2.531
298.15 K, x1 = 0.0989 | 4.964
298.15 K, x1 = 0.1415 | 6.443
298.15 K, x1 = 0.2035 | 7.869
298.15 K, x1 = 0.3069 | 8.456
298.15 K, x1 = 0.4204 | 7.901
298.15 K, x1 = 0.5037 | 7.472
298.15 K, x1 = 0.6109 | 6.897
298.15 K, x1 = 0.7651 | 6.754
298.15 K, x1 = 0.84 | 6.754
298.15 K, x1 = 0.8917 | 6.594
308.15 K, x1 = 0.0226 | 1.317
308.15 K, x1 = 0.0554 | 2.514
308.15 K, x1 = 0.0964 | 3.669
308.15 K, x1 = 0.1278 | 4.537
308.15 K, x1 = 0.1726 | 5.437
308.15 K, x1 = 0.2157 | 5.977
308.15 K, x1 = 0.2434 | 6.176
308.15 K, x1 = 0.302 | 6.38
308.15 K, x1 = 0.3364 | 6.428
308.15 K, x1 = 0.3687 | 6.422
308.15 K, x1 = 0.3952 | 6.376
308.15 K, x1 = 0.42 | 6.331
308.15 K, x1 = 0.4712 | 6.215
308.15 K, x1 = 0.5057 | 6.123
308.15 K, x1 = 0.5471 | 6.022
308.15 K, x1 = 0.6208 | 5.83
308.15 K, x1 = 0.6681 | 5.716
308.15 K, x1 = 0.6996 | 5.651
308.15 K, x1 = 0.775 | 5.463
308.15 K, x1 = 0.8279 | 5.355
308.15 K, x1 = 0.8744 | 5.266
308.15 K, x1 = 0.9499 | 5.134
313.15 K, x1 = 0.0497 | 1.632
313.15 K, x1 = 0.0989 | 2.994
313.15 K, x1 = 0.1415 | 3.785
313.15 K, x1 = 0.2035 | 4.556
313.15 K, x1 = 0.3069 | 4.963
313.15 K, x1 = 0.4204 | 4.933
313.15 K, x1 = 0.5037 | 4.812
313.15 K, x1 = 0.6109 | 4.728
313.15 K, x1 = 0.7651 | 4.394
313.15 K, x1 = 0.84 | 4.295
313.15 K, x1 = 0.8917 | 4.236
323.15 K, x1 = 0.0497 | 1.3
323.15 K, x1 = 0.0989 | 2.266
323.15 K, x1 = 0.1415 | 2.812
323.15 K, x1 = 0.2035 | 3.375
323.15 K, x1 = 0.3069 | 3.689
323.15 K, x1 = 0.4204 | 3.709
323.15 K, x1 = 0.5037 | 3.647
323.15 K, x1 = 0.6109 | 3.566
323.15 K, x1 = 0.7651 | 3.428
323.15 K, x1 = 0.84 | 3.352
323.15 K, x1 = 0.8917 | 3.307
